Biological target: T1, NMDA receptor (GRIN1/GRIN2A subunits) (Homo sapiens, UniProt Q05586+Q12879)
T1 construct: expressed in transfected cells; host or cells: HEK 293 cells, stably transfected with GRIN1 and transiently transfected with GRIN2A and CD8
Assay: NMDA potentiation, whole-cell patch-clamp in HEK cells
Format: cell-based
Details: currents evoked by 30 μM NMDA and 5.0 μM Glycine, holding potential −80 mV; for activation at 0.1 µM: HEK293, compound 0.1 uM, read-out: NMDA 1a2A (%) Potentiation 0.1 uM; for activation at 1 µM: HEK293, compound 1 uM, read-out: NMDA 1a2A (%) Potentiation 1 uM

T1 sequence (Q12879 23-1464, other chains not shown): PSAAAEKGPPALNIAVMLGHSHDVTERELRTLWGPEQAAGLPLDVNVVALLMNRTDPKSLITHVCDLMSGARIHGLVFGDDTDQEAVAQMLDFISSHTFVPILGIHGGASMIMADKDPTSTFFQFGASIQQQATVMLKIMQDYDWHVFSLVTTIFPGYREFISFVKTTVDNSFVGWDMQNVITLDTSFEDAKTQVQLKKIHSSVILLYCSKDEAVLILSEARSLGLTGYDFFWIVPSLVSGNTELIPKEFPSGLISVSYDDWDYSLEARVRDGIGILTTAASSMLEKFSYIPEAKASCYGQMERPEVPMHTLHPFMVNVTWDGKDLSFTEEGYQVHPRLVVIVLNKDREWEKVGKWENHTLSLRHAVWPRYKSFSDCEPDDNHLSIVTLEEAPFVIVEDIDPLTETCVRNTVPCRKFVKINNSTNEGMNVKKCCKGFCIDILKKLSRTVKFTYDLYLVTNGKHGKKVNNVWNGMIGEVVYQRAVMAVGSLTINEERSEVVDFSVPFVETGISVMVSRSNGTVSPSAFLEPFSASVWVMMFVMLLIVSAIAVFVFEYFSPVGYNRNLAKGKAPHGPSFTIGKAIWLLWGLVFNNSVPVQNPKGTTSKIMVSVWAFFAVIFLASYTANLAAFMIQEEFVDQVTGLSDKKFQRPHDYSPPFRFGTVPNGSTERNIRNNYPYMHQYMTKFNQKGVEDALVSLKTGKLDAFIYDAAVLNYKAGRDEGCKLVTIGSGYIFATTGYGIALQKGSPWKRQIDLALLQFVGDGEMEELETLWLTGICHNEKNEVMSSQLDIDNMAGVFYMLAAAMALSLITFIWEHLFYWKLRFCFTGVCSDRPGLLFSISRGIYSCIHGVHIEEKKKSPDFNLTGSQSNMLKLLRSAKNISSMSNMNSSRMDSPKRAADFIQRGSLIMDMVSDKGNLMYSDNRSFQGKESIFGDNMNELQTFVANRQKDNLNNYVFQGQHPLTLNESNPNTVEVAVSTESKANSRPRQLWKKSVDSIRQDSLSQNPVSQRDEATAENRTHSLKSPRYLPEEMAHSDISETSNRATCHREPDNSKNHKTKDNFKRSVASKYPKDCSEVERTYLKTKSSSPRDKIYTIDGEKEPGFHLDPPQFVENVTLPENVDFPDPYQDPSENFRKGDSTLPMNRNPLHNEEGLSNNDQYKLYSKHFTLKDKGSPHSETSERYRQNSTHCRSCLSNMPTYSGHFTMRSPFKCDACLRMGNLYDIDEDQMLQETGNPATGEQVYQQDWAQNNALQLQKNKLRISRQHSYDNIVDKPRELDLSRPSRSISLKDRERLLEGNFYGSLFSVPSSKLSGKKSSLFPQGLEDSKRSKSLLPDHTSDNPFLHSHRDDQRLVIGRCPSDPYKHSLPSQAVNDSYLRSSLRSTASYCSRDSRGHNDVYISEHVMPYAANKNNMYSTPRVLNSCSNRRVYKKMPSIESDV

Structure (SMILES) | activation at 0.1 µM [%] | activation at 1 µM [%]
CC(C)(O)CCO[C@H]1CCC2C3CC[C@H]4C[C@@](C)(O)CC[C@]4(C)C3CC[C@@]21C (stereo partly drawn) | 6 | 27
C[C@H](CCCO)[C@H]1CC[C@H]2[C@@H]3CC=C4C[C@@H](O)CC[C@]4(C)[C@H]3CC[C@]12C | 39 | 127
CC(C)(O)COC[C@H]1CCC2C3CC=C4C[C@@](C)(O)CC[C@]4(C)C3CC[C@@]21C (stereo partly drawn) | -5 | -14
CC(O)CC[C@@H](C)[C@H]1CC[C@H]2[C@@H]3CC=C4C[C@@H](O)CC[C@]4(C)[C@H]3CC[C@]12C (stereo partly drawn) | 42 | 98
C[C@H](CCC1(O)CC1)[C@H]1CC[C@H]2[C@@H]3CC=C4C[C@@H](O)CC[C@]4(C)[C@H]3CC[C@]12C | 74 | 171
CC(C)(O)CCC[C@H]1CCC2C3CC[C@H]4C[C@@](C)(O)CC[C@]4(C)C3CC[C@@]21C (stereo partly drawn) | 17 | 105
C[C@H](CCC(C)(C)O)[C@H]1CC[C@H]2[C@@H]3CC=C4C[C@@](C)(O)CC[C@]4(C)[C@H]3CC[C@]12C | 128 | 348
C[C@H](CCC(C)(C)O)[C@H]1CC[C@H]2[C@@H]3CC[C@H]4C[C@@H](O)CC[C@@H]4[C@H]3CC[C@]12C | 19 | 44
C[C@H](CCC(C)(C)O)[C@H]1CC[C@H]2[C@@H]3CC[C@H]4C[C@@](C)(O)CC[C@@H]4[C@H]3CC[C@]12C | 25 | 114
C[C@H](CC(C)(C)O)[C@H]1CC[C@H]2[C@@H]3CC=C4C[C@@H](O)CC[C@]4(C)[C@H]3CC[C@]12C | -5 | 27
COC[C@@]1(O)CC[C@@]2(C)[C@@H](CC[C@@H]3[C@@H]2CC[C@]2(C)[C@@H]([C@H](C)CCC(C)(C)O)CC[C@@H]32)C1 | 8 | 25
CC[C@]1(O)CC[C@@]2(C)C(=CC[C@H]3[C@@H]4CC[C@H]([C@H](C)CCC(C)(C)O)[C@@]4(C)CC[C@@H]32)C1 | 181 | 286
CC[C@@]1(O)CC[C@@]2(C)C(=CC[C@H]3[C@@H]4CC[C@H]([C@H](C)CCC(C)(C)O)[C@@]4(C)CC[C@@H]32)C1 | 23 | 139
C[C@H](CCC(C)(C)O)[C@H]1CC[C@H]2[C@@H]3CC[C@H]4C[C@](O)(C(F)(F)F)CC[C@@H]4[C@H]3CC[C@]12C | 14 | 85
C[C@@H]([C@H]1CC[C@H]2[C@@H]3CC=C4C[C@@H](O)CC[C@]4(C)[C@H]3CC[C@]12C)C(C)(C)O | 4 | 24
C[C@H](CCC(C)(C)O)[C@H]1CC[C@H]2[C@@H]3CC[C@@H]4C[C@@](O)(C(F)(F)F)CC[C@]4(C)[C@H]3CC[C@]12C | 9 | 18
C[C@H](CCC(C)(C)O)[C@H]1CC[C@H]2[C@@H]3CC[C@H]4C[C@](O)(C(F)(F)F)CC[C@]4(C)[C@H]3CC[C@]12C | 59 | 172
CNC(C)(C)CC[C@@H](C)[C@H]1CC[C@H]2[C@@H]3CC=C4C[C@@H](O)CC[C@]4(C)[C@H]3CC[C@]12C | 25 | 19
C[C@H](CCC(C)(C)O)[C@H]1CC[C@H]2[C@@H]3CC[C@H]4C[C@](C)(O)CC[C@]4(C)[C@H]3CC[C@]12C | 19 | 30
C[C@H](CCC(C)(C)N)[C@H]1CC[C@H]2[C@@H]3CC=C4C[C@@H](O)CC[C@]4(C)[C@H]3CC[C@]12C | -8 | -19
C[C@H](CC(F)(F)CO)[C@H]1CC[C@H]2[C@@H]3CC=C4C[C@@H](O)CC[C@]4(C)[C@H]3CC[C@]12C | 31 | 95
C[C@H](CCC(C)(C)O)[C@H]1CC[C@H]2[C@@H]3CC[C@H]4C[C@@H](O)CC[C@]4(C)[C@H]3CC[C@]12C | 18 | 85
CC(C)[C@H](O)CC[C@@H](C)[C@H]1CC[C@H]2[C@@H]3CC=C4C[C@@H](O)CC[C@]4(C)[C@H]3CC[C@]12C | 82 | 137
COC[C@]1(O)CC[C@@]2(C)[C@@H](CC[C@@H]3[C@@H]2CC[C@]2(C)[C@@H]([C@H](C)CCC(C)(C)O)CC[C@@H]32)C1 | 14 | 110
C[C@H](CCC(C)(C)O)[C@H]1CC[C@H]2[C@@H]3CC=C4C[C@](C)(O)CC[C@]4(C)[C@H]3CC[C@]12C | 13 | 60
C[C@H](CCC(C)(C)O)[C@H]1CC[C@H]2[C@@H]3CC=C4C[C@@H](O)CC[C@@H]4[C@H]3CC[C@]12C | 28 | 66
C[C@H](CCC(C)(C)O)[C@H]1CC[C@H]2[C@@H]3CC[C@H]4C[C@@](C)(O)CC[C@]4(C)[C@H]3CC[C@]12C | 87 | 
CC(CCC(C)(C)O)[C@H]1CC[C@H]2[C@@H]3CC=C4C[C@@H](O)CC[C@]4(C)[C@H]3CC[C@]12C (stereo partly drawn) [Compound 1] | 55 | 197
C[C@H](CCC(C)(C)O)[C@H]1CC[C@H]2[C@@H]3CC[C@H]4C[C@](C)(O)CC[C@@H]4[C@H]3CC[C@]12C | 21 | 52

From patent publication US20160022701A1, “NEUROACTIVE STEROIDS, COMPOSITIONS, AND USES THEREOF” (SAGE THERAPEUTICS, INC., priority 2013, published 2016)
